Measurements reported in ChEMBL document CHEMBL3638705, “Imidazo-, pyrazolopyrazines and imidazotriazines and their use” (2013).

Target: Glycogen synthase kinase-3 beta (Homo sapiens, UniProt P49841)
Assay: Biochemical Assay: The ingredients required for this purpose are mixed in a black 384-well microtiter plate with transparent base (from Greiner, catalog number 781092). The requirements in this connection for each well of the 384-well microtiter plate are 5 nM GSK3β (from Upstate, catalog number xy), 40 μM GSK3β substrate GSM (sequence H-RRRPASVPPSPSLSRHS-(pS)-HQRR, from Upstate, catalog number 2-533), 30 μM nicotinamide adenine dinucleotide NADH (Roche Diagnostics, catalog number 10107735), 50 μM adenosine triphosphate ATP (from Sigma, catalog number A7966) and 2 mM phosphoenolpyruvate (from Roche, catalog number 128112). The required reaction buffer in which the biochemical reaction takes place consists of 50 mM Trizma hydrochloride Tris-HCl pH: 7.5 (from Sigma, catalog number T3253), 5 mM magnesium chloride MgCl2 (from Sigma, catalog number M8266), 0.2 mM DL-dithiothreitol DTT (from Sigma, catalog number D9779), 2 mM ethylenediaminetetraacetic acid EDTA (from Sigma, catalog number E6758), 0.01% Triton X-100 (from Sigma, catalog number T8787) and 0.05% bovine serum albumin BSA (from Sigma, catalog number B4287). Active substances are dissolved in dimethyl sulfoxide DMSO (from Sigma, catalog number D8418) in a concentration of 10 mM. […]

Sequence of Glycogen synthase kinase-3 beta (P49841 whole entry): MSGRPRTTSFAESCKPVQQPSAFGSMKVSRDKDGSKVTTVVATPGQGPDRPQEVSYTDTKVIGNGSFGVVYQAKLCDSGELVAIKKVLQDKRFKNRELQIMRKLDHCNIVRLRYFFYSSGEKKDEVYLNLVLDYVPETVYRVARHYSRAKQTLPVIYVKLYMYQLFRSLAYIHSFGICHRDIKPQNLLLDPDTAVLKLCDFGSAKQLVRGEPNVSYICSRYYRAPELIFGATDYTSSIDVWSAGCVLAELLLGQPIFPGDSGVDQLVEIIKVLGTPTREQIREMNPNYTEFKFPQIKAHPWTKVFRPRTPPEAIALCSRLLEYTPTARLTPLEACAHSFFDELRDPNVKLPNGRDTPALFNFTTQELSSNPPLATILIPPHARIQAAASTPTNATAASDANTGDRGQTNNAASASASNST

IC50: 16 nM
Structure (SMILES): N#Cc1sc(NCCNc2nc(-c3ccc(Cl)cc3Cl)cn3ccnc23)nc1N
